Measurements as given in US20250304563A1, “ACTIVATORS OF EFFECTOR T CELLS” (Orum Therapeutics, Inc., priority 2022, published 2025).

Columns and labels:
Human primary T cells [1] = assay: T cell activation: secreted IL-2; type: cell-based; conditions: 48 hours, fold over background normalized to Compound 141A; for IL-2 1 nM: 1 nM compound; for IL-2 10 nM: 10 nM compound; for IL-2 100 nM: 100 nM compound
Procedure, shortened: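 Negatively selected human primary T cells on plate-bound anti-CD3 (OKT3) in serum-free medium, treated 48 h at 37° C. with serial compound dilutions in duplicate. Secreted IL-2 by bead-based cytometric assay, expressed as fold over anti-CD3/CD28 background normalized to a reference compound, then binned into ranges.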

[2] = target: Cbl-b (36-427 aa truncated form, N-terminus Avi-tag) (Homo sapiens (Human), UniProt Q13191); assay: Cbl-b binding: TR-FRET displacement of BODIPY-FL probe
Sequence of Cbl-b (36-427 aa truncated form, N-terminus Avi-tag) (Q13191 36-427): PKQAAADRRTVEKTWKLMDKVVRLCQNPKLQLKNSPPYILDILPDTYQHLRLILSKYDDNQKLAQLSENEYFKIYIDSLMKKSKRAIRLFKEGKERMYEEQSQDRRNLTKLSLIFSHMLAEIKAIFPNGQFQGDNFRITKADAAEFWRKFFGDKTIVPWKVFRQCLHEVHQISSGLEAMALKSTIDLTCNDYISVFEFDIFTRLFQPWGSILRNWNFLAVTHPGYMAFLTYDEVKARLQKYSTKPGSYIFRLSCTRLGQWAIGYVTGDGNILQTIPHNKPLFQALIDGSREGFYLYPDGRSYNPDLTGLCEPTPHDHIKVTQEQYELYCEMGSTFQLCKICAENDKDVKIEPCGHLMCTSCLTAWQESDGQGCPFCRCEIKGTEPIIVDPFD
Procedure, shortened: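 Avi-tagged Cbl-b 36-427 preincubated 1 h at RT with streptavidin-terbium in HEPES pH 7.5/NaCl/Triton/BSA/TCEP buffer, then 1 uM BODIPY-FL inhibitor probe plus compound added for 1 h. Probe displacement read by TR-FRET; IC50 fitted.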

Human primary T cells [3] = assay: T cell activation: secreted IFN-y; type: cell-based; conditions: 48 hours, fold over background normalized to Compound 141A; for IFN-y 1 nM: 1 nM compound; for IFN-y 10 nM: 10 nM compound; for IFN-y 100 nM: 100 nM compound
Procedure, shortened: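 Negatively selected primary human T cells (1×10^5/well, serum-free XVivo-15) on plates coated with 10 μg/mL anti-CD3 were exposed to serial compound dilutions for 48 h at 37 °C. Secreted IFN-γ was measured by cytometric bead array and expressed as fold over anti-CD3/CD28 background, normalized to a reference compound and binned into ranges A–D.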

Human primary T cells [4] = assay: T cell activation: CD69 surface expression by flow cytometry; type: cell-based; conditions: fold over anti-CD3 stimulated background normalized to Compound 141A; for CD69 1 nM: 1 nM compound; for CD69 10 nM: 10 nM compound; for CD69 100 nM: 100 nM compound
Procedure, shortened: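 Negatively selected human primary T cells (1×10^5/well, XVivo-15) were captured on plates coated with 10 μg/mL anti-CD3 (OKT3). They were exposed to serially diluted compounds in duplicate for 48 h at 37° C. CD69 was read by flow cytometry as fold over anti-CD3-only background, normalized to Compound 141A and binned into ranges.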

IC50 [2] [nM]	Structure (SMILES)	IL-2 1 nM (Human primary T cells [1])	IL-2 10 nM (Human primary T cells [1])	IL-2 100 nM (Human primary T cells [1])	IFN-y 1 nM (Human primary T cells [3])	IFN-y 10 nM (Human primary T cells [3])	IFN-y 100 nM (Human primary T cells [3])	CD69 1 nM (Human primary T cells [4])	CD69 10 nM (Human primary T cells [4])	CD69 100 nM (Human primary T cells [4])
5.01 to 20	CSc1cc(CN2CCC[C@H](C)C2)cc2c1CN(c1cc([C@]3(c4nncn4C)C[C@H](C)C3)cc(N)n1)C2=O [Compound 174, 2-{6-amino-4-[(1r,3s)-3-methyl-1-(4-methyl-1,2,4-triazol-3-yl)cyclobutyl]pyridin-2-yl}-6-{[(3S)-3-methylpiperidin-1-yl]methyl}-4-(methylsulfanyl)-3H-isoindol-1-one]	D (values between 0.01 and 0.09: range “D.”)	D (values between 0.01 and 0.09: range “D.”)	B (values between 0.31 and 0.79: range “B”)	B (values between 0.31 and 1.00: range “B;”)	B (values between 0.31 and 1.00: range “B;”)	B (values between 0.31 and 1.00: range “B;”)	C (values between 0.30 and 0.60: range “C”)	C (values between 0.30 and 0.60: range “C”)	B (values between 0.61 and 0.80: range “B;”)
1 to 5	CCNc1cc(C2(Cc3nncn3C)COC2)cc(N2Cc3c(SC)cc(CN4CCCCC4)cc3C2=O)n1 [Compound 175, 2-[6-(ethylamino)-4-{3-[(4-methyl-1,2,4-triazol-3-yl)methyl]oxetan-3-yl}pyridin-2-yl]-4-(methylsulfanyl)-6-(piperidin-1-ylmethyl)-3H-isoindol-1-one]	D (values between 0.01 and 0.09: range “D.”)	D (values between 0.01 and 0.09: range “D.”)	C (values between 0.10 and 0.30: range “C”)	C (values between 0.10 and 0.30: range “C”)	B (values between 0.31 and 1.00: range “B;”)	B (values between 0.31 and 1.00: range “B;”)	C (values between 0.30 and 0.60: range “C”)	C (values between 0.30 and 0.60: range “C”)	B (values between 0.61 and 0.80: range “B;”)
5.01 to 20	CCNc1cc([C@]2(c3nncn3C)C[C@H](C)C2)cc(N2Cc3ncc(CN4CCC[C@H](C)C4)cc3C2=O)n1 [Compound 176, 6-[6-(ethylamino)-4-[(1r,3s)-3-methyl-1-(4-methyl-1,2,4-triazol-3-yl)cyclobutyl]pyridin-2-yl]-3-{[(3S)-3-methylpiperidin-1-yl]methyl}-7H-pyrrolo[3,4-b]pyridin-5-one]	D (values between 0.01 and 0.09: range “D.”)	C (values between 0.10 and 0.30: range “C”)	B (values between 0.31 and 0.79: range “B”)	C (values between 0.10 and 0.30: range “C”)	B (values between 0.31 and 1.00: range “B;”)	B (values between 0.31 and 1.00: range “B;”)	C (values between 0.30 and 0.60: range “C”)	C (values between 0.30 and 0.60: range “C”)	B (values between 0.61 and 0.80: range “B;”)
1 to 5	CCNc1cc(C2(c3nncn3C)CC(C)C2)cc(N2Cc3c(SC)cc(CN4CCC[C@H](C)C4)cc3C2=O)n1 (stereo partly drawn) [Compound 181, 2-[6-(ethylamino)-4-[(1r,3s)-3-methyl-1-(4-methyl-1,2,4-triazol-3-yl)cyclobutyl]pyridin-2-yl]-6-{[(3S)-3-methylpiperidin-1-yl]methyl}-4-(methylsulfanyl)-3H-isoindol-1-one]	D (values between 0.01 and 0.09: range “D.”)	C (values between 0.10 and 0.30: range “C”)	A (between 0.80 and 1.40: range “A”)	B (values between 0.31 and 1.00: range “B;”)	B (values between 0.31 and 1.00: range “B;”)	A (fold over background between 1.10 and 2.00: range “A”)	C (values between 0.30 and 0.60: range “C”)	B (values between 0.61 and 0.80: range “B;”)	X (fold over background values between 1.11 and 1.6: range “X”)
1 to 5	C[C@H]1CCCN(Cc2cc3c(c(C(F)(F)F)c2)CN(c2cc(C4(Cc5nncn5C)COC4)cc(OCCOCCOCCOCCNC(=O)CCN4C(=O)C=CC4=O)n2)C3=O)C1 [Compound 201, 3-(2,5-dioxopyrrol-1-yl)-N-{2-[2-(2-{2-[(4-{3-[(4-methyl-1,2,4-triazol-3-yl)methyl]oxetan-3-yl}-6-(6-{[(3S)-3-methylpiperidin-1-yl]methyl}-1-oxo-4-(trifluoromethyl)-3H-isoindol-2-yl)pyridin-2-yl)oxy]ethoxy}ethoxy)ethoxy]ethyl}propanamide]	C (values between 0.10 and 0.30: range “C”)	C (values between 0.10 and 0.30: range “C”)	C (values between 0.10 and 0.30: range “C”)	C (values between 0.10 and 0.30: range “C”)	C (values between 0.10 and 0.30: range “C”)	C (values between 0.10 and 0.30: range “C”)		C (values between 0.30 and 0.60: range “C”)	C (values between 0.30 and 0.60: range “C”)

Continued, compound first:

Structure (SMILES)	IC50 [2] [nM]	IL-2 1 nM (Human primary T cells [1])	IL-2 10 nM (Human primary T cells [1])	IL-2 100 nM (Human primary T cells [1])	IFN-y 1 nM (Human primary T cells [3])	IFN-y 10 nM (Human primary T cells [3])	IFN-y 100 nM (Human primary T cells [3])	CD69 1 nM (Human primary T cells [4])	CD69 10 nM (Human primary T cells [4])	CD69 100 nM (Human primary T cells [4])
C[C@H]1CCCN(Cc2cc3c(c(C(F)(F)F)c2)CN(c2cc(C4(Cc5nncn5C)COC4)cc(NCc4c[nH]nn4)n2)C3=O)C1.O=C(O)C(F)(F)F [Compound 182, (S)-2-(6-(((1H-1,2,3-triazol-4-yl)methyl)amino)-4-(3-((4-methyl-4H-1,2,4-triazol-3-yl)methyl)oxetan-3-yl)pyridin-2-yl)-6-((3-methylpiperidin-1-yl)methyl)-4-(trifluoromethyl)isoindolin-1-one; trifluoroacetic acid]	5.01 to 20	D (values between 0.01 and 0.09: range “D.”)	D (values between 0.01 and 0.09: range “D.”)	D (values between 0.01 and 0.09: range “D.”)	C (values between 0.10 and 0.30: range “C”)	C (values between 0.10 and 0.30: range “C”)	B (values between 0.31 and 1.00: range “B;”)	C (values between 0.30 and 0.60: range “C”)	C (values between 0.30 and 0.60: range “C”)	C (values between 0.30 and 0.60: range “C”)
Cn1cnnc1CC1(c2cc(NCCC#N)nc(N3Cc4c(cc(CN5CCN(c6nccs6)CC5)cc4C(F)(F)F)C3=O)c2)COC1.O=C(O)C(F)(F)F [Compound 186, 3-((4-(3-((4-methyl-4H-1,2,4-triazol-3-yl)methyl)oxetan-3-yl)-6-(1-oxo-6-((4-(thiazol-2-yl)piperazin-1-yl)methyl)-4-(trifluoromethyl)isoindolin-2-yl)pyridin-2-yl)amino)propanenitrile; trifluoroacetic acid]	5.01 to 20	D (values between 0.01 and 0.09: range “D.”)	D (values between 0.01 and 0.09: range “D.”)	D (values between 0.01 and 0.09: range “D.”)	C (values between 0.10 and 0.30: range “C”)	C (values between 0.10 and 0.30: range “C”)	B (values between 0.31 and 1.00: range “B;”)	C (values between 0.30 and 0.60: range “C”)	C (values between 0.30 and 0.60: range “C”)	C (values between 0.30 and 0.60: range “C”)
C[C@H]1CCCN(Cc2cc3c(c(C(F)(F)F)c2)CN(c2cc(C4(Cc5nncn5C)COC4)cc(NC4CC(C#N)C4)n2)C3=O)C1.O=C(O)C(F)(F)F (stereo partly drawn) [Compound 190, (S)-3-((4-(3-((4-methyl-4H-1,2,4-triazol-3-yl)methyl)oxetan-3-yl)-6-(6-((3-methylpiperidin-1-yl)methyl)-1-oxo-4-(trifluoromethyl)isoindolin-2-yl)pyridin-2-yl)amino)cyclobutane-1-carbonitrile; trifluoroacetic acid]	5.01 to 20	C (values between 0.10 and 0.30: range “C”)	C (values between 0.10 and 0.30: range “C”)	C (values between 0.10 and 0.30: range “C”)	C (values between 0.10 and 0.30: range “C”)	B (values between 0.31 and 1.00: range “B;”)	B (values between 0.31 and 1.00: range “B;”)	C (values between 0.30 and 0.60: range “C”)	C (values between 0.30 and 0.60: range “C”)	B (values between 0.61 and 0.80: range “B;”)
Cn1cnnc1CC1(c2cccc(NC(=O)c3cc(CN4CC[C@H](OCCCCCCNC(=O)CCN5C(=O)C=CC5=O)C4)cc(C4CC4)n3)c2)COC1 [Compound 200]	5.01 to 20	C (values between 0.10 and 0.30: range “C”)	C (values between 0.10 and 0.30: range “C”)	C (values between 0.10 and 0.30: range “C”)	C (values between 0.10 and 0.30: range “C”)	C (values between 0.10 and 0.30: range “C”)	C (values between 0.10 and 0.30: range “C”)		C (values between 0.30 and 0.60: range “C”)	C (values between 0.30 and 0.60: range “C”)
